Structures are written as SMILES.

This data set is described as follows: Human HepG2 cell viability assay in 384 well format. The class given is toxicity, cell-based. As to conditions: HepG2 cells, read-out: Inhibition. On the set-up: dose 125 nL, time 70.5 hour; concentration not given beside the values.
`Cc1noc(CNC(=O)CN(C)c2nc3c(F)cccc3s2)n1`: the cytotoxicity at 70.5 h was determined as 28.5%.
In the case of `Cc1noc(CNC(=O)CN(C)c2nc3c(C)ccc(C)c3s2)n1` it was 12.2%; in that of `Cc1nccn1-c1ccc(=O)n(CCNC(=O)c2c(F)cccc2Cl)n1`, -6.16%; in that of `Cc1nccn1-c1ccc(=O)n(CCNC(=O)c2ccccn2)n1`, -6.46%.
For `Cc1nccn1-c1ccc(=O)n(CCNC(=O)c2cccs2)n1`, the cytotoxicity at 70.5 h was -11.7%.
Take `COc1ccc(-n2nnc(C(N)=O)n2)cc1`: the cytotoxicity at 70.5 h is -7.17%.
To `CN1CCCN(C(=O)c2nnn(-c3ccc(C(F)(F)F)cc3)n2)CC1` belongs -4.86%.
In the case of `CCC(C)NC(=O)c1nnn(-c2ccc(Br)cc2)n1` (configuration not stated) it was 5.21%.
To `COCC(C)NC(=O)c1nnn(-c2ccc(Br)cc2)n1` (configuration not stated) belongs 10.9%.
`O=C(NCC1CCCCC1)c1nnn(-c2ccc(Br)cc2)n1`: the cytotoxicity at 70.5 h is -6.14%.
To `O=C(NCC(F)(F)F)c1ccc(-n2cccn2)nn1` belongs 5.82%; to `COc1ccccc1C(O)Cn1cc(C(=O)NCC2CC2)nn1` (configuration not stated), -2.27%.
Consider `Cc1nnc(C2CCN(C(=O)c3ccc4nccnc4c3)CC2)s1`, for which the cytotoxicity at 70.5 h is -8.52%.
For the molecule `Cn1c(C(F)(F)F)nn(CCNC(=O)Nc2ccccc2F)c1=O`, the cytotoxicity at 70.5 h is -7.97%.
Turning to `Cn1c(C(F)(F)F)nn(CCNC(=O)Nc2ccccc2Cl)c1=O`, the cytotoxicity at 70.5 h stood at 25.1%.
To `CC(C)c1nnc(C2CCN(CC(=O)Nc3cccnc3)CC2)o1` belongs -5.94%; to `CN(C)S(=O)(=O)N1CCC(c2nnc(C(F)(F)F)o2)CC1`, 30.8%.
To `Cn1nc(C2CCN(CC(=O)NC3CC3)CC2)n(-c2ccccc2)c1=O` belongs -8.96%.
Consider `O=C(Cn1cccc(S(=O)(=O)N2CCCC2)c1=O)c1ccccc1Cl`, for which the cytotoxicity at 70.5 h was -8.77%.
On to `COC(=O)N1CCc2ccccc2C1C(=O)NCc1ccccn1` (configuration not stated), for which the cytotoxicity at 70.5 h came to 0.0153%.
As for `COC(=O)N1CCc2ccccc2C1C(=O)NCc1ccco1` (configuration not stated), the cytotoxicity at 70.5 h is -10.1%.
In the case of `COC(=O)N1CCc2ccccc2C1C(=O)NCc1cccs1` (configuration not stated) it was -6.75%.
To `COC(=O)N1CCc2ccccc2C1C(=O)NCc1ccncc1` (configuration not stated) belongs -3.87%; to `COC(=O)N1CCc2ccccc2C1C(=O)NCc1nc(C)no1` (configuration not stated), -7.1%; to `O=C(NC1CCN(c2ccc(-c3ccccc3F)nn2)C1)c1cc[nH]n1` (configuration not stated), -12.8%.
On to `O=C(Cn1ccc2ccccc21)Nc1cc(N2CCCC2)ncn1`, for which the cytotoxicity at 70.5 h was 3.21%.
To `CCOc1ccccc1NC(=O)Nc1cc(N2CCCC2)ncn1` belongs 1.9%.
With `Cc1cc(=O)n(CCNC(=O)c2ccccc2Cl)cn1`, the cytotoxicity at 70.5 h stood at 4.36%.
As for `Cc1cc(=O)n(CCNS(=O)(=O)c2cccc(C(F)(F)F)c2)cn1`, the cytotoxicity at 70.5 h is -8.24%.
Take `Cc1cc(=O)n(CCNS(=O)(=O)c2ccc(F)c(Cl)c2)cn1`: the cytotoxicity at 70.5 h is -4.51%.
To `CCc1cc(=O)n(CCNC(=O)Nc2ccc(OC(F)(F)F)cc2)cn1` belongs -3.46%; to `Cc1ncn(CCNC(=O)Nc2ccc(F)c(Cl)c2)c(=O)c1C`, -3.86%; to `O=C(c1ccco1)N(CC(F)(F)F)C1CCOCC1`, -7.66%.
In the case of `O=C(C1=COCCO1)N1CC(Oc2nc3c(C(F)(F)F)cccc3s2)C1` it was 10.3%; in that of `CN(C)C(CNC(=O)NCCOc1ccccc1)c1ccco1` (configuration not stated), 13%; in that of `COc1ccc(OC)c(-c2cc(C(=O)NCC3(CO)CC3)n(C)n2)c1`, -5.05%.
In the case of `NC(=O)Cc1csc(NC(=O)C2CSCCC(=O)N2)n1` (configuration not stated) it was 1.67%; in that of `O=C(O)CC(CC(=O)NCCc1cccs1)c1cccs1` (configuration not stated), 3.06%; in that of `O=C(O)CC(CC(=O)N(Cc1ccsc1)C1CC1)c1cccs1` (configuration not stated), 20.8%.
As for `Cc1ccc(S(=O)(=O)NCCc2ccoc2)s1`, the cytotoxicity at 70.5 h is -9.94%.
With `N#Cc1cccnc1OC1CCN(S(=O)(=O)c2ccc(F)c(Cl)c2)CC1`, the cytotoxicity at 70.5 h was -14.2%.
Regarding `N#Cc1ccc(OC2CCN(C(=O)c3cncc(Br)c3)CC2)nc1`, the cytotoxicity at 70.5 h is -9.99%.
Turning to `N#Cc1ccc(OC2CCN(C(=O)Cc3cccs3)CC2)nc1`, the cytotoxicity at 70.5 h is -0.57%.
Take `O=C(CCC(=O)N1CCC(Oc2ncccc2Br)CC1)c1ccccc1`: the cytotoxicity at 70.5 h was -9.39%.
On to `Cc1cccc(OC2CCN(C(=O)Cn3ccc4ccccc43)CC2)n1`, for which the cytotoxicity at 70.5 h is -6.3%.
In the case of `Cc1cccc(OC2CCN(C(=O)c3ccc4ncsc4c3)CC2)n1` it was 0.229%; in that of `O=C(Nc1cnc(Oc2ccccc2)nc1)C1CC1`, -2.39%.
To `O=C(c1ccccc1F)N1CCN(c2ccc(-n3cccc3)nn2)CC1` belongs -8.46%; to `O=C(c1cccnc1)N1CCN(c2ccc(-n3cccc3)nn2)CC1`, 0.575%; to `Cc1ccc(S(=O)(=O)NCCNc2cc(-n3cccc3)ncn2)c(C)c1`, -0.584%.
As to `CS(=O)(=O)N1CCCC12CCCN(C(=O)c1ccnnc1)C2` (configuration not stated), the cytotoxicity at 70.5 h was -11.3%.
To `COCC1c2nnn(CC3CC3)c2CCN1C(=O)c1sccc1C` (configuration not stated) belongs -11.5%.
On to `COCC1c2nnn(CC3CC3)c2CCN1C(=O)c1cc(C)on1` (configuration not stated), for which the cytotoxicity at 70.5 h was -12.7%.
In the case of `Cc1ccoc1C(=O)N1CCc2ncnc(-c3cnn(C)c3)c2CC1`, the cytotoxicity at 70.5 h came to 24.7%.
On to `Cc1noc(C2CCC3(CCN(C(=O)c4ccnnc4)CC3)O2)n1` (configuration not stated), for which the cytotoxicity at 70.5 h was -0.131%.
Consider `CC(=O)N1CCc2ncc(CNC(=O)C3CCC3)n2CC1`, for which the cytotoxicity at 70.5 h is -2.29%.
To `CCS(=O)(=O)N1Cc2ncn(CC3CC3)c2C(COC)C1` (configuration not stated) belongs -0.679%.
Take `CCN1CCc2cc(C(=O)N(C)C)c(NCC3CC3)nc2CC1`: the cytotoxicity at 70.5 h stood at 2.86%.
As for `CN1CC2(CCN(C(=O)C3CCC3)CC2)COc2ccccc2S1(=O)=O`, the cytotoxicity at 70.5 h was -4.42%.
Take `CCN1CC2(CCN(C(=O)N(C)C)CC2)COc2ccccc2S1(=O)=O`: the cytotoxicity at 70.5 h is 4.83%.
In the case of `Cc1cc(C(=O)N2CCc3ncnc(-c4cnn(C)c4)c3CC2)c(C)o1` it was -7.85%; in that of `COCC1CN(CC2CC2)Cc2ncn(CC3CC3)c21` (configuration not stated), 2.41%.
In the case of `Cc1noc(C2CCC3(CCN(C(=O)c4ncccn4)CC3)O2)n1` (configuration not stated) it was 2.54%; in that of `O=C1CCCN1Cc1ncn2c1CN(C(=O)C1CC=CC1)CCC2`, -5.43%.
To `O=C(NCC1CCOCC1)[C@@H]1C[C@@H]2[C@@H](CCN2Cc2ccoc2)O1` belongs 0.123%.
`Cc1noc(C2CCC3(CCN(C(=O)c4ccncn4)CC3)O2)n1` (configuration not stated): the cytotoxicity at 70.5 h stood at 3.42%.
To `CN(C)C(=O)c1cc2c(nc1NCC1CC1)CCN(CC1CC1)CC2` belongs 5.16%; to `O=C(NCC1CC1)[C@H]1CC[C@@H]2[C@@H](CCN2Cc2nccs2)O1`, 1.44%.
To `CCn1ncc2c1C(COC)CN(Cc1ccc(C)o1)C2` (configuration not stated) belongs 2.21%; to `CN(C)CCN1CCN(CC2CC2)c2ncccc2C1`, -3.26%.
With `Cc1nccc([C@H]2C[C@@H]3CCN(S(C)(=O)=O)C[C@H]3O2)n1`, the cytotoxicity at 70.5 h is -0.795%.
To `CCOC[C@@H]1CC[C@H]2[C@H](CCN2C(=O)c2ccncc2F)O1` belongs -1.37%.
Turning to `CNC(=O)N1CCC2(CC1)CC[C@@]1(C(=O)NC)CN(S(C)(=O)=O)C[C@@H]21`, the cytotoxicity at 70.5 h is -0.00397%.
In the case of `Cc1nccc([C@@H]2C[C@@H]3CCN(S(=O)(=O)N(C)C)C[C@H]3O2)n1` it was 1.05%.
In the case of `Cc1ccc(S(=O)(=O)N2CCCC3(CCCN3S(C)(=O)=O)C2)cc1F` (configuration not stated) it was 0.261%; in that of `O=C(c1ccc(N2CCOCC2)nc1)N1CCCC(n2ccnc2)C1` (configuration not stated), -3.02%.
As for `Cc1ccc(NC2CCN(C(=O)c3cc(C)no3)CC2)nn1`, the cytotoxicity at 70.5 h turned out to be 0.395%.
In the case of `COc1ccc(CN2CCC3(CC(=O)N(c4cccc(F)c4)C3)C2)cc1` (configuration not stated) it was -10.4%; in that of `O=C(Nc1cnccn1)[C@H]1CC[C@@H]2[C@@H](CCN2Cc2ccoc2)O1`, 25.7%.
In the case of `Cc1ccc2c(n1)N(CCn1cccn1)CCN(S(C)(=O)=O)C2` it was 27.2%; in that of `O=C(NCc1cnc2n1CCN(CC1CC1)C2)C1CC1`, 28%; in that of `CN1CC2(CCN(CC3CC3)CC2)COc2ccccc2S1(=O)=O`, -1.33%.
In the case of `O=C(NCc1cccs1)[C@H]1CC[C@@H]2[C@@H](CCN2Cc2ccoc2)O1` it was 2.32%; in that of `COCC(=O)N1CCN(CCn2cccn2)c2nc(C)ccc2C1`, 0.00132%.
As for `CN(C)C(=O)CN1CCC2(CC1)COc1ccccc1S(=O)(=O)N(C)C2`, the cytotoxicity at 70.5 h came out at 0.16%.
To `O=C(NCc1cnc2n1CCN(Cc1nccs1)CC2)C1CCC1` belongs -2.78%; to `COCC1CN(Cc2ccc(C)s2)Cc2nnn(C)c21` (configuration not stated), 2.8%; to `Cc1ccc(CN2CCc3ncc(CNC(=O)C4CCC4)n3CC2)o1`, -2.7%.
To `Cc1ccc(CN2Cc3nnn(C)c3C(COCC(=O)N(C)C)C2)s1` (configuration not stated) belongs -8.72%; to `Cc1ccc(CN2Cc3nnn(C)c3C(COCC3CC3)C2)s1` (configuration not stated), 4.45%.
In the case of `Cc1csc(CN2C[C@@H]3COC[C@]3(COCC(=O)N(C)C)C2)n1` it was -3.08%.
As to `CC(C)COC[C@H]1CC[C@H]2[C@H](CCN2C(=O)c2ccncc2F)O1`, the cytotoxicity at 70.5 h is -0.218%.
In the case of `COc1ccc(CN2Cc3nnn(C)c3C(COCCN(C)C)C2)cc1` (configuration not stated), the cytotoxicity at 70.5 h turned out to be 4.07%.
To `Cc1nc(CN2CC[C@H](OCC3CC3)[C@@H]2Cc2cccnc2)cs1` belongs -1.82%; to `CN(C)CCOCC1CN(Cc2ccccn2)Cc2nnn(C)c21` (configuration not stated), 0.965%.
To `CN(C)CCN1CCN(Cc2nccs2)Cc2cccnc21` belongs 2.78%; to `CN(C)CCN1CCN(Cc2cccs2)Cc2cccnc21`, -0.769%.
